Data published in the pKa sets of Baltruschat and Czodrowski (2020).

In the case of `COc1ccc2c(Nc3ccc(NS(C)(=O)=O)cc3OC)c3ccccc3nc2c1`, the pKa is reported as 7.81.
With `Cc1ccc(S(=O)(=O)c2nc(N3CCc4ccccc4C3)sc2Cl)cc1` the pKa was -3.78.
In the case of `CN1CCN2c3ccccc3Cc3ccccc3C2C1` (stereo not drawn), the pKa is reported as 7.1.
`Cc1ccccc1Nc1c2ccccc2nc2ccccc12` gave a pKa of 7.76.
`Nc1ncnc2c1ncn2[C@@H]1O[C@H](COS(=O)(=O)NC(=O)c2ccccc2)[C@@H](O)[C@H]1O` gave a pKa of 2.8.
With `CCCCCCOC(=O)c1ccc(OS(N)(=O)=O)cc1` the pKa was 8.52.
Work on `CCCn1c(=O)c2nc(-c3ccc(S(=O)(=O)NCCN(C)C)cc3)[nH]c2n(CCC)c1=O` yielded a pKa of 8.
`COc1ccc2c3c1O[C@H]1[C@@H](O)C=C[C@H]4[C@@H](C2)N(C)CC[C@@]341` gave a pKa of 8.2.
`CN1CCN2c3ncccc3Cc3ccccc3C2C1` (stereo not drawn) gave a pKa of 7.3.
For `O=c1[nH]c(=O)n([C@H]2C[C@H](O)[C@@H](CO)O2)cc1I`, the pKa was 8.2.
In the case of `CN1C=CN(C2NC(C(Cl)(Cl)Cl)=CN2c2ccc(S(N)(=O)=O)cc2)C=C1` (stereo not drawn), the pKa is reported as 7.68.
`CS(=O)(=O)Nc1ccc(Nc2c3ccccc3nc3cc(N=[N+]=[N-])ccc23)cc1` showed a pKa of 7.
Work on `CC(C)(C)NCc1ccc(S(=O)(=O)c2csc(S(N)(=O)=O)c2)cc1.Cl` yielded a pKa of 8.08.
In the case of `CCCCS(=O)(=O)Nc1ccc(Nc2c3ccccc3nc3ccccc23)cc1`, the pKa is reported as 7.18.
In the case of `CS(=O)(=O)Nc1ccc(Nc2c3ccccc3nc3cccnc23)cc1`, the pKa is reported as 6.9.
`CN(C)CCCC(C)(C)c1ccc(C(C)(C)C)cc1` showed a pKa of 9.8.
With `COc1cc(Cl)c(N=C2NCCN2)c(Cl)c1` the pKa was 8.57.
Molecule `O=[N+]([O-])c1cc(Cl)c(N=C2NCCN2)c(Cl)c1` has a pKa of 6.86.
In the case of `CN(C)CCC1(Cc2ccc(C(C)(C)C)cc2)COC1`, the pKa is reported as 9.2.
In the case of `COc1cccc(S(=O)(=O)Nc2cccn(CC(=O)NCc3ccc(C(=N)N)cc3)c2=O)c1`, the pKa is reported as 10.2.
In the case of `CCOc1ccccc1Nc1c2ccccc2nc2ccccc12`, the pKa is reported as 7.85.
`CCCCCCS(=O)(=O)Nc1ccc(Nc2c3ccccc3nc3ccccc23)cc1` gave a pKa of 7.17.
Work on `CCN(CCN(CC(=O)O)CC(=O)O)CCN(CC(=O)O)CC(=O)O` yielded a pKa of 2.8.
Work on `COc1cccc(S(=O)(=O)Nc2cccn(CC(=O)NCc3ccc(C(=N)N)cc3OC)c2=O)c1` yielded a pKa of 10.
Work on `Nc1cccc(Nc2c3ccccc3nc3ccccc23)c1` yielded a pKa of 7.58.
Work on `O=C(Nc1ccccc1)Nc1ccc(Nc2c3ccccc3nc3ccccc23)cc1` yielded a pKa of 7.67.
For `BP(=O)(OC[C@H]1O[C@@H](n2cnc3c(N)ncnc32)[C@H](O)[C@@H]1O)OP(=O)(O)C(Cl)(Cl)P(=O)(O)O` (stereo partly drawn), the pKa was 7.
In the case of `CC(C)Oc1ccc(-c2nc(-c3ccc4c(c3)CCN(C(CO)CO)CC4)no2)cc1C#N`, the pKa is reported as 7.8.
`NS(=O)(=O)Cc1ccc(Nc2c3ccccc3nc3ccccc23)cc1` gave a pKa of 7.05.
`Cn1ccnc1` showed a pKa of 7.12.
In the case of `Clc1cc(Cl)c(N=C2NCCN2)c(Cl)c1`, the pKa is reported as 7.75.
With `NS(=O)(=O)c1cc(S(=O)(=O)c2ccc(O)cc2)cs1` the pKa was 7.46.
In the case of `Fc1ccc(Nc2c3ccccc3nc3ccccc23)cc1`, the pKa is reported as 7.5.
